Data as given in patent publication US20220039395A1, “INSECT CONTROL AGENTS” (priority 2018, published 2022).
Entries after “also recorded” stand apart in the source; their conditions may differ. Numbered stars: 1 amine (or outer) side, 2 acyl side, 3 side chain; on linkers, the order of the positions; unused ones are H or OH. Square brackets hold non-standard residues; d marks the D form. Ends that are not written are not given here. Suc = O=C(CCC(=O)[*:2])[*:1]; β3hL = CC(C)C[C@H](N)CC(=O)O; 2Abf = not defined here

Legend:
[1] = test system: Macrosiphum rosae; assay: Desiccation/starvation tolerance assay after peptide microinjection; format: in vivo; conditions: Macrosiphum rosae, microinjection; for Documented effect on desiccation/starvation mortality: final concentration ×10^−5 M, relative to vehicle control; for LTime50 (h), test / Median IQR survival (h), test: ×10^−5 M, desiccation and starvation stress, test group
Method: (§1) Neuropeptides were administered to test aphids via microinjection to allow for rapid mass screening of neuropeptide analogue efficacy. For this, native neuropeptides were diluted in double distilled water (DDH2O) to a concentration of 1×10^−5 M. Neuropeptide analogues were diluted in DDH2O to the following concentrations: kinin analogues 1728 (2.5×10^−5 M), 2139 (3.5×10^−5 M), 2139-Ac (3.5×10^−5 M); CAP2b analogues 1895 (3.5×10^−5 M), 1896 (3.5×10^−5 M), 1902 (3.5×10^−5 M), 2089 (3.9×10^−5 M), 2123 (1.0×10^−5 M), 2125 (1.0×10^−5 M), 2129 (2.0×10^−5 M). Once at the desired concentration, neuropeptide solutions were administered to test aphids at an injection volume of 9 nl based on total haemolymph volume, to produce an approximate 1:20 dilution of injection volume to haemolymph. Injections were performed using a pulled glass needle and a Nanoject II Auto-Nanoliter Injector (Drummond Scientific Company, Broomall, Pa.). A vehicle control was set up for each treatment/day of experiments to account for variation in needle pulling. For this, control aphids were injected with 9 nl of DDH2O and subsequently exposed to the same experiments as aphids receiving the neuropeptide treatment. Neuropeptide treated and vehicle control aphids were subsequently used in the stress bioassays detailed below.
(§2) Anholocyclic adults of mixed age of either M. persicae or M. rosae were selected from the stock cultures and treated with a native neuropeptide or neuropeptide analogue via microinjection using the method detailed above. Treated and vehicle control aphids were allowed to recover on excised leaves of the host plant for 1 h before being placed in an empty ventilated microcage (L=4 cm, 0=9.5 cm) at densities of 10 per cage. In total, 30-40 aphids were treated for each neuropeptide treatment group and a further 30-40 for the associated vehicle control group. From the point of placement in the microcage (taken as 0 h), aphid survival was checked every hour during daylight hours and approximately every 4 h during night-time hours until the final aphid died. Survival data were subsequently analysed using a Log-rank (Mantel-Cox) text in GraphPad Prism version 7.0. LTime50 (the time taken to kill 50% of the test population) values were calculated via Probit Analysis in Minitab 17 (Minitab Inc., State College, Pa.).

[2] = test system: Myzus persicae; assay: as above; format: in vivo; conditions: Myzus persicae, microinjection; for Documented effect on desiccation/starvation mortality: final concentration ×10^−5 M, relative to vehicle control; for LTime50 (h), test / Median ± IQR survival (h), test: ×10^−5 M, desiccation and starvation stress, test group
Method: as §1, §2

[3] = test system: Myzus persicae; assay: Feeding of aphids with peptides in artificial diet; life span and fecundity; format: in vivo; conditions: M. persicae on artificial diet containing the peptide; mean ± SE
Method: A standard artificial diet for M. persicae was produced as described in Van Emden (2009) and provided the basal diet to which neuropeptide analogues were added for screening purposes. Neuropeptide analogues were diluted individually in the artificial diet to a pre-determined recommended concentration as follows: 1895 (3.5×10^-5 M) and 2019 (2.0×10^-5 M). Feeding apparatus were constructed using a set-up developed by […] et al (2009). For this, a piece of Parafilm was stretched over a Plexiglas ring (h=4 cm, Ø=3 cm) and 100 μl of the artificial diet containing the desired neuropeptide analogue was pipette onto the Parafilm membrane. A second piece of Parafilm, stretched to 4 times the original thickness, was stretched over the original layer, sandwiching the artificial diet between two layers of Parafilm. A strip of Parafilm was wrapped around the circumference of the Plexiglas ring, sealing in the diet. A plastic ring (h=1.2 cm, Ø=3.4 cm) was subsequently placed over the Parafilm layer, creating a walled chamber in which to house test aphids in contact with the Parafilm layer containing the artificial diet. Finally, a small Petri dish (h=1 cm, Ø=3.6 cm), modified for ventilation with net cloth, was placed on top of each feeding apparatus to prevent aphid escape. To obtain aphids for use in experiments, reproducing anholocyclic adults were placed on individual excised leaves of Chinese cabbage at densities of 5 adults per leaf and allowed to reproduce for 24 h. The stem of each excised leaf was held within a 0.5 mL Eppendorf tube containing water via a punctured hole in the Eppendorf lid, and placed individually within a microcage (L=4 cm, Ø=9.5 cm). Following 24 h, adults were removed and resultant first instar nymphs (<1 day old and synchronised in age to within 24 h) retained. Nymphs were allowed to develop on the Chinese cabbage for 5 days. On day 5, (3rd instar) nymphs were transferred onto the artificial diet containing a neuropeptide analogue at densities of 1 per feeding chamber and monitored daily until death. Aphids were transferred to fresh artificial diet (containing neuropeptide analogue) every 5 days. Life history traits recorded include age at first reproduction, number of nymphs produced per 24 h period, and lifespan. From these parameters, lifetime fecundity and daily fecundity were calculated. Control groups were set up involving aphids reared on the host plant, an artificial diet without a neuropeptide analogue, and an artificial diet containing the native CAPA neuropeptide.

[4] = test system: Aphids; assay: Feeding with peptides in artificial diet, mortality without other stress; format: in vivo, Myzus persicae; conditions: for effect on mortality in the absence of additional stressors: no additional stress conditions
Method: A standard artificial diet for M. persicae was produced as described in Van Emden (2009) and provided the basal diet to which neuropeptide analogues were added for screening purposes. Neuropeptide analogues were diluted individually in the artificial diet to a pre-determined recommended concentration as follows: 1895 (3.5×10^−5 M) and 2019 (2.0×10^−5 M).
Feeding apparatus were constructed using a set-up developed by Sadeghi et al (2009). For this, a piece of Parafilm was stretched over a Plexiglas ring (h=4 cm, Ø=3 cm) and 100 μl of the artificial diet containing the desired neuropeptide analogue was pipette onto the Parafilm membrane. A second piece of Parafilm, stretched to 4 times the original thickness, was stretched over the original layer, sandwiching the artificial diet between two layers of Parafilm. A strip of Parafilm was wrapped around the circumference of the Plexiglas ring, sealing in the diet. A plastic ring (h=1.2 cm, Ø=3.4 cm) was subsequently placed over the Parafilm layer, creating a walled chamber in which to house test aphids in contact with the Parafilm layer containing the artificial diet. Finally, a small Petri dish (h=1 cm, Ø=3.6 cm), modified for ventilation with net cloth, was placed on top of each feeding apparatus to prevent aphid escape.
To obtain aphids for use in experiments, reproducing anholocyclic adults were placed on individual excised leaves of Chinese cabbage at densities of 5 adults per leaf and allowed to reproduce for 24 h. The stem of each excised leaf was held within a 0.5 mL Eppendorf tube containing water via a punctured hole in the Eppendorf lid, and placed individually within a microcage (L=4 cm, Ø=9.5 cm). Following 24 h, adults were removed and resultant first instar nymphs (<1 day old and synchronised in age to within 24 h) retained. Nymphs were allowed to develop on the Chinese cabbage for 5 days. On day 5, (3rd instar) nymphs were transferred onto the artificial diet containing a neuropeptide analogue at densities of 1 per feeding chamber and monitored daily until death. Aphids were transferred to fresh artificial diet (containing neuropeptide analogue) every 5 days. Life history traits recorded include age at first reproduction, number of nymphs produced per 24 h period, and lifespan. From these parameters, lifetime fecundity and daily fecundity were calculated. Control groups were set up involving aphids reared on the host plant, an artificial diet without a neuropeptide analogue, and an artificial diet containing the native CAPA neuropeptide.
Aphids were reared on artificial diet, alone or supplemented with peptide 2129, 2315, 2316 or 2320. A control group (no test peptide) was reared on a host plant. No other stress conditions were applied.
For peptides 2315, 2316 and 2320, mortality was assessed at 48, 72, 96, 120 and 144 hours. A group of 9 or 10 insects was used for each time point, and all experiments were performed at least 4 times.

Substance	Documented effect on desiccation/starvation mortality [1]	LTime50 (h), test [1]	Median IQR survival (h), test [1]	Documented effect on desiccation/starvation mortality [2]	LTime50 (h), test [2]	Median ± IQR survival (h), test [2]	also measured
2Abf-Suc-FKPRL-NH2 ({2Abf-Suc}-FKPRL-NH2; reading uncertain; also: printed as 2Abf-Suc-FKPRL-NH2) [compound 1902]	No effect	28.9 | 26.4 h	27.0 ± 17.3 | 25.0 ± 10.0 h	No effect	22.2 | 21.8 h	24.0 ± 0 9.0 | 23.5 ± 7.0 h	–
Native Kinin: native kinin neuropeptide based on the kinin structure of Drosophila melanogaster, synthesized by Cambridge Peptides (NSVVLGKKQRFHSWG; ends and bridges not checked) [reference compound]	–	–	–	–	–	–	Age at 1st reproduction [3]: 11.1 ± 0.5 days; Ave. daily fecundity [3]: 1.6 ± 0.2 nymphs; Days as reproducing adult [3]: 5.9 ± 1.0; Life span [3]: 18.8 ± 1.3 days; Lifetime fecundity [3]: 9.7 ± 1.9 nymphs
2Abf-Suc-FTPRV-NH2 ({2Abf-Suc}-FTPRV-NH2; reading uncertain; also: printed as 2Abf-Suc-FTPRV-NH2) [compound 2089]	No effect	23.2 | 16.4 h	23.0 ± 17.0 | 17.0 ± 21.3 h	No effect	10.9 | 13.0 h	11.0 ± 12.0 | 16.5 ± 10.3 h	–
2Abf-Suc-FTPRI-NH2 ({2Abf-Suc}-FTPRI-NH2; reading uncertain; also: printed as 2Abf-Suc-FTPRI-NH2) [compound 1896]	No effect	28.9 | 24.7 h	27.0 ± 17.3 | 23.0 ± 18.5 h	No effect	22.2 | 24.8 h	24.0 ± 0 9.0 | 25.0 ± 10.5 h	–
ASGL[βhL]AFPRV-NH2 (ASGL[β3hL]AFPRV-NH2; N-terminus assumed; SMILES CC(C)C[C@@H](CC(=O)N[C@@H](C)C(=O)N[C@@H](Cc1ccccc1)C(=O)N1CCC[C@H]1C(=O)N[C@@H](CCCNC(=N)N)C(=O)N[C@H](C(N)=O)C(C)C)NC(=O)[C@H](CC(C)C)NC(=O)CNC(=O)[C@H](CO)NC(=O)[C@H](C)N) [compound 2316]	–	–	–	–	–	–	Dead (48 h) ([4]; artificial diet supplemented with peptide, 48 h): 86.0%; Dead (72 h) ([4]; artificial diet supplemented with peptide, 72 h): 88.0%; Dead (96 h) ([4]; artificial diet supplemented with peptide, 96 h): 90.0%; Dead (120 h) ([4]; artificial diet supplemented with peptide, 120 h): 92.0%; Dead (144 h) ([4]; artificial diet supplemented with peptide, 144 h): 92.0%; effect on mortality in the absence of additional stressors [4]: increase mortality in the absence of additional stressors; effect on mortality in the absence of additional stressors ([4]; listed as 2136): increase mortality in the absence of additional stress conditions
2Abf-Suc-FT[Hyp]RV-NH2 [compound 2123]	No effect	21.6 | 19.1 h	24.0 ± 11.0 | 16.0 ± 18.0 h	No effect	24.3 | 21.1 h	25.0 ± 13.5 | 21.0 ± 13.5 h	–
FF[Aib]WG-NH2 [compound 2139, reference compound]	non-significant survival curves; also recorded: No effect	31.7 | 29.8 h	29.5 ± 22.0 | 27.0 ± 26.0 h	non-significant survival curves; also recorded: No effect	18.3 | 22.4 h	22.0 ± 16.5 | 25.0 ± 21.0 h	–
GANMGLYAFPRVamide (GANMGLYAFPRV-NH2) [Native Capa, reference compound]	–	–	–	–	–	–	Age at 1st reproduction [3]: 11.2 ± 0.2 days; Ave. daily fecundity [3]: 1.6 ± 0.1 nymphs; Days as reproducing adult [3]: 7.6 ± 0.6; Life span [3]: 21.3 ± 0.7 days; Lifetime fecundity [3]: 12.0 ± 1.2 nymphs
[Aib]FF[Aib]WG-NH2 [compound 1728, reference compound]	No effect	31.7 | 31.6 h	29.5 ± 22.0 | 24.0 ± 28.5 h	No effect	18.3 | 25.0 h	22.0 ± 16.5 | 26.0 ± 23.5 h	–
